Assay results: patent publication US20260234144A1 (TAY THERAPEUTICS LIMITED, priority 2023, published 2026)

System: R223X stop codon in the mutated luciferase gene, ADXC8 luciferase reporter cell line
Assay: cells
Format: cell-based
Details: ADXC8 cells, 24 hours; for Emax / EC (100% of 200 uM G418 response): 24 h; for Emax: read-out: Fold Over Control, maximum fold response relative to 200 μM G418; for EC (100% of 200 uM G418 response): read-out: pC100%, negative logarithm of the concentration giving the same response as 200 μM G418; for pC100%: negative logarithm of the concentration giving the same response as 200 μM G418

| SMILES | Emax [%] | EC (100% of 200 uM G418 response) [µM] | Fold Over Control (maximum fold response relative to 200 μM G418) | pC100% |
| --- | --- | --- | --- | --- |
| Cc1cc(C)c2c(N)nc(NC3(CN(C)C)CC3)nc2n1 [Example 219, N^2-(1-((dimethylamino)methyl)cyclopropyl)-5,7-dimethylpyrido[2,3-d]pyrimidine-2,4-diamine] | 0 to 100 | > 31.6 | – | – |
| CNc1nc(NC2CCN(C)C2(C)C)nc2nc(C)cc(C)c12 (stereo not shown) [Example 409] | 100 to 3000 | 1 to 10 | – | – |
| Cc1cc(C)c2c(N)nc(NCC3CCCCN3C)nc2n1 (stereo not shown) [Example 144] | 100 to 3000 | 1 to 10 | – | – |
| CN1CCC(Nc2nc(N)c3cc(CO)cnc3n2)CC1 [Example 123, {4-amino-2-[(1-methylpiperidin-4-yl)amino]pyrido[2,3-d]pyrimidin-6-yl}methanol] | 0 to 100 | > 100 | – | – |
| CN1CCC(Nc2nc(N)c3ccc(-c4ccnnc4)nc3n2)CC1 [Example 61] | 0 to 100 | > 100 | – | – |
| Cc1cc(C)c2c(NCC(F)(F)F)nc(N[C@@H]3CCN(C)C3)nc2n1 [Example 389] | 100 to 3000 | 10 to 100 | – | – |
| [2H]C([2H])([2H])N1CCC(Nc2nc(N)c3c(C)cc(C)nc3n2)CC1 [Example 584] | – | 1 to 10 | – | – |
| Cc1c2c(nc3nc(NC4CCN(Cc5ccc(C(=O)O)cc5)CC4)nc(N)c13)CCC2 [Example 673] | 100 to 3000 | 1 to 10 | – | – |
| CN1CCC(Nc2nc(N)c3ccc(-c4ccccc4C(F)(F)F)nc3n2)CC1 [Example 90] | 100 to 3000 | 10 to 100 | – | – |
| Cc1cc(C)c2c(N)nc(NC3CCN(Cc4ccncc4O)CC3)nc2n1 [Example 564] | 100 to 3000 | 1 to 10 | – | – |
| CNc1nc(NC2C3CCC2CN(C)C3)nc2nc(C)cc(C)c12 (single isomer, unassigned) [Example 433] | 100 to 3000 | 1 to 10 | – | – |
| CN1CCC(Nc2nc(N)c3ccc(-c4ccc(F)c(F)c4)nc3n2)CC1 [Example 108] | – | 1 to 10 | – | – |
| Cc1cc(C)c2c(N3CCOCC3)nc(NC3CCN(C)CC3)nc2n1 [Example 266] | 0 to 100 | > 100 | – | – |
| CNc1nc(N[C@@H]2CN(C)C[C@@H]2C)nc2nc(C)cc(C)c12 [Example 377] | 100 to 3000 | 1 to 10 | – | – |
| CNc1nc(N[C@@H]2CCN(C)C2)nc2nc(N(C)C)cc(C)c12 [Example 630] | 100 to 3000 | 10 to 100 | – | – |
| Cc1ccc(-c2ccc3c(N)nc(NC4CCN(C)CC4)nc3n2)cc1 [Example 101] | – | 1 to 10 | – | – |
| Cc1cc(C)c2c(N)nc(NCCN3CCNC3=O)nc2n1 [Example 160] | 0 to 100 | > 100 | – | – |
| Cc1cc(C)c2c(NC3CC3)nc(N[C@@H]3CCNC3)nc2n1 [Example 332] | 100 to 3000 | 1 to 10 | – | – |
| CNCCNc1nc(N)c2c(C)cc(C)nc2n1 [Example 285] | – | 1 to 10 | – | – |
| CN1CCC(Nc2nc(N)c3ccc(-c4ccccc4Cl)nc3n2)CC1 [Example 115, 7-(2-chlorophenyl)-N^2-(1-methylpiperidin-4-yl) pyrido[2,3-d]pyrimidine-2,4-diamine] | 100 to 3000 | 1 to 10 | – | – |
| CNc1nc(N[C@H]2CNC[C@H]2O)nc2nc3c(c(C)c12)CCC3 [Example 360] | 100 to 3000 | 10 to 100 | – | – |
| CNc1nc(N[C@@H]2C[C@@H](O)CN(C)C2)nc2nc(C)cc(C)c12 [Example 604] | 100 to 3000 | 1 to 10 | – | – |
| CNc1nc(NC2CC3CCC2N3)nc2nc(C)cc(C)c12 (stereo not shown) [Example 518, N^2-(-7-azabicyclo[2.2.1]heptan-2-yl)-N^4,5,7-trimethylpyrido[2,3-d]pyrimidine-2,4-diamine] | – | – | ## (Fold over Ctrl > 1 ≤ 30) | + (pC100% > 4.0 ≤ 5.0) |

| SMILES | Emax [%] | EC (100% of 200 uM G418 response) [µM] | Fold Over Control (maximum fold response relative to 200 μM G418) | pC100% |
| --- | --- | --- | --- | --- |
| Cc1cc(C)c2c(N)nc(NC3CCN(Cc4cocn4)CC3)nc2n1 [Example 472] | 100 to 3000 | 1 to 10 | – | – |
| Cc1cc(C)c2c(N)nc(NC3CCN(Cc4ccc(C#N)cc4F)CC3)nc2n1 [Example 571] | 100 to 3000 | 1 to 10 | – | – |
| Cc1cc(C)c2c(N)nc(NCCCNCC(F)(F)F)nc2n1 [Example 185] | 0 to 100 | > 31.6 | – | – |
| CN1CCC(Nc2nc(N)c3ccc(-c4cccc(CO)c4)nc3n2)CC1 [Example 92] | 100 to 3000 | 10 to 100 | – | – |
| CCNc1nc(N[C@H]2CN(C)C[C@@H]2F)nc2nc(C)cc(C)c12 [Example 393] | 100 to 3000 | 1 to 10 | – | – |
| Cc1cccc(-c2cc(C)c3c(N)nc(NCCCN4CCOCC4)nc3n2)c1 [Example 253, 5-methyl-N2-(3-morpholinopropyl)-7-(m-tolyl)pyrido[2,3-d]pyrimidine-2,4-diamine] | – | 1 to 10 | – | – |
| Cc1cc(C)c2c(N)nc(NC3C[C@H]4CC[C@@H](C3)N4)nc2n1 (stereo partly shown) [Example 177] | 100 to 3000 | 0.1 to 1 | – | – |
| CN1CCC(Nc2nc(N)c3ccc(-c4cc(F)ccc4F)nc3n2)CC1 [Example 69] | 100 to 3000 | 1 to 10 | – | – |
| Cc1cc(C)c2c(N)nc(N[C@H]3CCNCC3(F)F)nc2n1 [Example 220] | 100 to 3000 | 1 to 10 | – | – |
| CNc1nc(N[C@H]2CN(C)CC[C@H]2O)nc2nc(C)cc(C)c12 [Example 607] | – | 1 to 10 | – | – |
| Cc1cc(C)c2c(N)nc(N[C@@H]3CCNC[C@H]3O)nc2n1 [Example 180] | 100 to 3000 | 1 to 10 | – | – |
| Cc1cc(C)c2c(N(C)C3CC3)nc(NC3CCN(C)CC3)nc2n1 [Example 265] | 0 to 100 | > 100 | – | – |
| CN1CCC(Nc2nc(N)c3c(N(C)C)ccnc3n2)CC1 [Example 307] | 0 to 100 | > 100 | – | – |
| Cc1cc(C)c2c(NCc3ccncc3)nc(NC3CCN(C)CC3)nc2n1 [Example 319] | 0 to 100 | > 31.6 | – | – |
| Cc1cc(C)c2c(NCCN3CCOCC3)nc(NC3CCN(C)CC3)nc2n1 [Example 357] | 100 to 3000 | 1 to 10 | – | – |
| Cc1cc(C)c2c(N)nc(NC3CCN(Cc4cccc(F)c4O)CC3)nc2n1 [Example 566] | 100 to 3000 | 0.1 to 1 | – | – |
| CNc1nc(NC2CCN3CCCC3C2)nc2nc(C)cc(C)c12 (single isomer, unassigned) [Example 443] | 100 to 3000 | – | – | ++ (pC100% > 5.0 ≤ 6.0) |
| CN1CCC(Nc2nc(N)c3ccc(-c4cccc(F)c4)nc3n2)CC1 [Example 62] | 100 to 3000 | 1 to 10 | – | – |
| Cc1cc(C)c2c(N)nc(NC3CCN(Cc4cccc(C(F)F)c4)CC3)nc2n1 [Example 489] | 100 to 3000 | 1 to 10 | – | – |
| CNCCCNc1nc(N)c2c(C)cc(C)nc2n1 [Example 280] | – | 1 to 10 | – | – |
| COCc1cnc2nc(NC3CCN(C)CC3)nc(N)c2c1 [Example 242, 6-(methoxymethyl)-N^2-(1-methylpiperidin-4-yl)pyrido[2,3-d]pyrimidine-2,4-diamine] | 0 to 100 | > 100 | – | – |
| CNc1cc(N[C@@H]2CCNC2)nc2nc(C)cc(C)c12 [Example 256, (R)—N^4,5,7-trimethyl-N^2-(pyrrolidin-3-yl)-1,8-naphthyridine-2,4-diamine] | – | 0.1 to 1 | – | – |
